Measurements reported in article PMC7125586 (Febs Letters, 2007).

Columns and labels:
gp160 processing = details: cell-permeable peptide; cited from earlier work
[1] = biological target: furin (recombinant soluble hfurin) (Homo sapiens, UniProt P09958); assay: Inhibition assay of furin with fluorogenic substrate Pyr-RTKR-MCA; assay type: biochemical; details: up to 100 μM heparin (20 μM or 100 μM); fluorescence
Chain of furin (recombinant soluble hfurin) (P09958 108-715 limits assumed): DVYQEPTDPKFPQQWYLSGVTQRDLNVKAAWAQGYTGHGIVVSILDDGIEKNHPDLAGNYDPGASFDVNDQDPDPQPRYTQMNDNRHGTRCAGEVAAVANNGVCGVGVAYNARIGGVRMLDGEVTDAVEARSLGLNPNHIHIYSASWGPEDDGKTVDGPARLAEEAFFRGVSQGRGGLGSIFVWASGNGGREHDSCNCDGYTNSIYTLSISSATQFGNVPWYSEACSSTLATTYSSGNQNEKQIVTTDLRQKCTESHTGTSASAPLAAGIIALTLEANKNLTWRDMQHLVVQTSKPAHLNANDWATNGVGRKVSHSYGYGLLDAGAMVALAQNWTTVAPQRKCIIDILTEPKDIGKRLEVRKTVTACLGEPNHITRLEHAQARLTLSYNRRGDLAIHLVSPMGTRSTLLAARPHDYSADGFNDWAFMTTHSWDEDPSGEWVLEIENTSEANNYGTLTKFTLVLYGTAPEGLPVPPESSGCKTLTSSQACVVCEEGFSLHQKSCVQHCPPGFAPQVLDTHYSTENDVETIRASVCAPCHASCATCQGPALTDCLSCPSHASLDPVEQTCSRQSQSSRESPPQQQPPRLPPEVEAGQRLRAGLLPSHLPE

Substance	Interference with gp160 processing (gp160 processing)	Influence on furin activity on Pyr-RTKR-MCA processing [1]
KIEPLGVAPTKAKRRVVQREKR [22mer]	interferes with gp160 processing	–
heparin	–	did not influence furin activity
